Measurements as given in US6770782B1, “Process for the production of potassium hydroxy citric acid, and compositions containing the potassium hydroxy citric acid” (Sabinsa Corporation, priority 1995, dated 2004).
“Also recorded” adds a separate entry of the source.

Columns and labels:
[1] = tested on: gluconeogenesis in rat liver; conditions: HCA-treated rats; cited from earlier work
[2] = rats, cited from earlier work
[3] = free acid converts to lactone; cited from earlier work
citrate lyase = biological target: T1, citrate lyase (Homo sapiens, UniProt P53396); conditions: cited from earlier work
T1 sequence (P53396 1-1101): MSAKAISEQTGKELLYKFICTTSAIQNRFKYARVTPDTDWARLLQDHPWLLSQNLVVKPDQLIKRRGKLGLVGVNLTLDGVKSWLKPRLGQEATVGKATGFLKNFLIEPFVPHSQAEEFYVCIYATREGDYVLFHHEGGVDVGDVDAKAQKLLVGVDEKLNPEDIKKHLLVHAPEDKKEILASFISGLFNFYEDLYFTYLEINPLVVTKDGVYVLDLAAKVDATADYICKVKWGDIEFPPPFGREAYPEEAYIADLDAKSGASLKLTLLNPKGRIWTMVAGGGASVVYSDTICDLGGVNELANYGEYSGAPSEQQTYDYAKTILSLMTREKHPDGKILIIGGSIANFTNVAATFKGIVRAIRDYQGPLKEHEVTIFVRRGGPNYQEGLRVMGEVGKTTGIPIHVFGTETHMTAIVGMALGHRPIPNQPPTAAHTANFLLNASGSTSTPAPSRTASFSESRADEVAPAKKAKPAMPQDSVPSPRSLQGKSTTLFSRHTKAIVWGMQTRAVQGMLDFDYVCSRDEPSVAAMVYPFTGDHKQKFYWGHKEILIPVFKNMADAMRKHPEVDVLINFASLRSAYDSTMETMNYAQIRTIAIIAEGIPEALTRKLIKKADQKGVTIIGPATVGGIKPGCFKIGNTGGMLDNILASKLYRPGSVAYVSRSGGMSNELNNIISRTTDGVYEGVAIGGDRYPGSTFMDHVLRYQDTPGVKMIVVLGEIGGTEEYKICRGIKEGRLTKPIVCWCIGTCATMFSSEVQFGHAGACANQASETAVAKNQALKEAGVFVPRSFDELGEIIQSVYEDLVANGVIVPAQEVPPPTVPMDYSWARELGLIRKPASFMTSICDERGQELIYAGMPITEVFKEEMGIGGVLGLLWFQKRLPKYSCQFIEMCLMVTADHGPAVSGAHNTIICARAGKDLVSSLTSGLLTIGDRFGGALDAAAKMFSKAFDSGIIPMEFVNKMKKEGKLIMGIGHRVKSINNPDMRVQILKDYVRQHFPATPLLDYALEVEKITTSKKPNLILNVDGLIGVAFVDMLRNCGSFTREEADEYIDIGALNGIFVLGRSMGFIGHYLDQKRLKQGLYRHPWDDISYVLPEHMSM

[4] = in vivo; cited from earlier work
[5] = solubility (product specification); format: physicochemical
[6] = stability of the product in solid state and in aqueous solution; format: physicochemical
Experimental: The stability of the product was evaluated in solid state and in aqueous solution in temperature and humidity conditions as specified below. The following parameters of the product were considered: physical appearance, specific rotation, HCA content by HPLC, lactone content by HPLC. […]
b) 37°±2° C. and 75%±2 relative humidity c) 45°±2° C. and 75%±2 relative humidity
2. In solution form (5% in water)

In the case of `O=C(O)CC(O)(C(=O)O)C(O)C(=O)O` (centres unmarked) [HCA, hydroxycitric acid], the “rate of gluconeogenesis from lactate or alanine” value [1] is given as “approximately doubled”, the “less weight gained than the controls” value ([2]; 80 day study period) is given as 78% and the “net reduction in food consumption” value ([2]; 80 day study period) is given as 4%. The food consumption suppressed ([2]; HCA 1% or more of the diet) was ≥ 10%, the “stability of the form” value [3] was “not stable” and the Ki (citrate lyase; competitive inhibition, read-out: Ki, competitive inhibitor of citrate lyase) was 150 nM. The “affinity of the enzyme for HCA versus affinity for citric acid” value (citrate lyase; relative to citric acid) was “over a hundred times greater” and the brain uptake [4] was “negligible”.
For `O=C1C[C@@](O)(C(=O)O)[C@@H](C(=O)O)O1` [HCA in lactone form, hydroxy citric acid lactone], the “stability of the form” value [3] is given as “stable” and the “inhibiting the citrate lyase” value (citrate lyase; lactone form) is given as “inactive, or less active”.
In the case of potassium hydroxy citrate [CITRIN®-K], the Solubility ([5]; citrate) is reported as “Soluble in water, acids and aqueous; also recorded: alcohols. Insoluble in solvents like”, the Solubility ([5]; listed as potassium hydroxy citrate) is reported as “water soluble” and the “stable under normal storage conditions” value ([6]; extrapolated from 90 day stress results) is reported as “about 5 years”. The “stable under stress conditions” value ([6]; higher temperature and higher humidity, solid state and 5% in water) was ≥ 90 days.
